Reference: ChEMBL document CHEMBL5506003, “Design and biological evaluation of dual tubulin/HDAC inhibitors based on millepachine for treatment of prostate cancer” (Eur J Med Chem, 2024)
Active and inactive are the calls of the source. The calls are words filed in the database; no cut-off is given here.

Experiments:
Histone deacetylase 2 = Histone deacetylase 2 (Homo sapiens, UniProt Q92769); experiment: Inhibition of HDAC2 in human PC-3 cells assessed as increase in acetylated Histone-H3 level incubated for 24 hrs by Western blotting assay; format: cell-based; conditions: dose 0.08-0.32 µM
PC-3 [1] = experiment: Inhibition of colony formation in human PC-3 cells at 5 nM incubated for 24 hrs followed by replacement with fresh media and measured after 2 weeks by crystal violet staining based assay; format: functional, cell-based
PC-3 [2] = experiment: Induction of apoptosis in human PC-3 cells assessed as upregulation of cleaved caspase-3 expression at 0.08 to 0.32 uM by Western blotting analysis; format: functional, cell-based; conditions: dose 0.08-0.32 µM
PC-3 [3] = experiment: Induction of apoptosis in human PC-3 cells assessed as viable cells at 0.32 uM incubated for 24 hrs by Annexin V-FITC and PI staining based flow cytometry (reference value: 97.5%); format: functional; conditions: read-out: Activity
Tubulin (Homo sapiens) = Tubulin (Homo sapiens) (UniProt P68371+Q9H4B7+P0DPH7+P68366+Q13509+Q71U36+P04350+Q3ZCM7+P07437+P68363+Q9BQE3+Q6PEY2+Q13885+Q9BVA1+Q9BUF5); experiment: Inhibition of microtubule polymerization in human PC-3 cells assessed as fragmented microtubule filaments at 0.32 uM incubated for 6 hrs by immunofluorescent staining based confocal microscopy assay; format: cell-based

Histone deacetylase 2, sequence (Q92769 whole entry): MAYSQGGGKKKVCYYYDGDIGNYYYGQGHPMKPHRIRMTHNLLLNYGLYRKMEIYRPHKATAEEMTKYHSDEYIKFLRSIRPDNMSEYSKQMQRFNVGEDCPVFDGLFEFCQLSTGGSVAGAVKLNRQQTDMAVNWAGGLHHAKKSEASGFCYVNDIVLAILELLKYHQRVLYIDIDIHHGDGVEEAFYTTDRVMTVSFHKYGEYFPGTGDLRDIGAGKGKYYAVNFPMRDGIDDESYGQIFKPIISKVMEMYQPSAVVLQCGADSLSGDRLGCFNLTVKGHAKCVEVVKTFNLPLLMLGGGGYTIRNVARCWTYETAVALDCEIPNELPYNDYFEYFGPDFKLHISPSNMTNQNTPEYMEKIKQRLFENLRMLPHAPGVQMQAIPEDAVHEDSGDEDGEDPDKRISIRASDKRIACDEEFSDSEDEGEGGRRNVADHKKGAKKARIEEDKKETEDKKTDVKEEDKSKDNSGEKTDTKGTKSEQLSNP

- inhibition (Histone deacetylase 2): Dose-Dependent Effect
- inhibition (Tubulin (Homo sapiens)): Active
SMILES: COc1ccc(/C=C/C(=O)c2ccc(OC)c3c2OC(C)(C)C=C3)cc1NCC(=O)NO
- inhibition (PC-3 [1]): Active
- Activity (PC-3 [2]): Active
- viability at 0.32 µM (PC-3 [3]): 27.6%
